Earlier results, collected in US4946853A, “Method for the treatment of withdrawal symptoms associated with smoking cessation and preparations for use in said method” (priority 1987, dated 1990).

Legend:
[1] = in vivo
[2] = within one hour of first smoking; 60 min
[3] = oral nicotine administration

Structure (SMILES): CN1CCCC1c1cccnc1 (stereo not drawn) [nicotine]
- absorption by the percutaneous route [1]: high degree of absorption
- normal plasma trough level associated with usual smoking [2]: 5 to 15 ng/mL
- gastrointestinal upsets [3]: susceptibility of the patient to gastrointestinal upsets
